In this assay the test system is lactate dehydrogenase A (LDHA); measured as cellular LDH activity. Kind of assay: LDH activity. The format is cell-based.

Among the data in publication PMC6774872 (Cancer research, 2019) are IC50 values, retold here.

Consider NCI-737, for which the IC50 (in general, the midpoint of a concentration-inhibition curve) is ~100 nM.
